Article PMC6447882, “Pharmacokinetics and Biodistribution of Pegylated Methotrexate after IV Administration to Mice” (Iranian Journal of Pharmaceutical Research : IJPR, 2018)
Values after ≈ are worked out from the molar mass of the structure shown. Values joined by “and” are separate entries in the source; they are usually repeats but may differ in a detail not shown here. Equal values may be shown once. “Also recorded” adds a separate entry of the source. Read-outs that look alike come from different tables or passages of the source. Values belong to the compound of their own block, whether it stands above or below them.

Assays:
[1] = set-up: method as in PMID 18346806, PMID 12506184; conditions: drug linked to PEG40000 vs free drug; cited from earlier work
[2] = set-up: method as in PMID 18346806, PMID 12506184; conditions: conjugation to PEG5000; cited from earlier work
in vivo = conditions: mice; for half-life: iv
Procedure: A portion of 500 μL acetonitrile was added to a mixture of 225 μL plasma and 25 μL MTX or MTX-PEG5000 solution (100 µg/mL) and vortexed. Precipitated proteins were separated by centrifuging the mixture at 12000 rpm for 5 min. The supernatant was evaporated by a Multi-Evaporator (VLM EC 1, Italy) at 50 °C using nitrogen gas. The residue was dissolved in 150 μL mobile phase and injected to HPLC. The standards were prepared in triplicate at eight concentrations ranging from 0.25 to 100 µg/mL for MTX and from 1 to 1000 µg/mL for MTX-PEG5000.
A Knauer HPLC system consisted of a wellchrom pump k-1001, equipped with k-2701, DAD k-2700 detector was used. Chromatography was performed on a PerfectSilTarget® 100 HPLC Column (C8, 150 × 4.6 mm, 5 µm). For analysis of MTX, mobile phase consisted of phosphate-citrate buffer (pH 5): acetonitrile (88:12, v/v) and was delivered isocratically at a flow rate of 1 mL/min.
The column eluent was monitored using UV detector at the wavelength of 302 nm. For analysis of MTX-PEG5000, the mobile phase consisted of phosphate-citrate buffer (pH 5): acetonitrile (55:45, v/v) and was delivered isocratically at a flow rate of 0.5 mL/min. The column eluent was monitored using UV detector at the wavelength of 342 nm.
(§1) IV bolous injections of MTX and MTX-PEG5000 (70 mg/kg) were administered to mice through marginal veins by insulin syringe (gauge 27). At least three mice were sacrificed at each time point. The animals (n = 200) at dosing were in the range of 2-4 weeks of age and their mean weight was 20 ± 5 g. The blood samples were collected at 5, 10, 15, 30, 45, 60, 90, and 120 min intervals for MTX and for at 5, 10, 15, 30, 45, 60, 90, 120, 180, 240, 300, and 360 min intervals for MTX-PEG5000. At each time point, the blood samples were collected from at least three mice and after centrifuging (10000 rpm, for 5 min), the plasma samples were separated and immediately frozen at -20 °C. Then, the mice were cervically dislocated and their organs including heart, liver, spleen, kidney, lung, brain, and small intestine were removed and after washing with normal saline, were dried by facial tissue and exactly weighed. Whole removed organs and 0.25 to 0.5 g of liver and small intestine were minced and homogenized in a certain volume of normal saline using homogenizer IKA basic T25 (Germany). The organs were collected from MTX injected animals (10, 60 and 120 min for all organs and 5, 10, 30, 60 and 120 for liver tissue) and at 2, 6, 12, 24, and 48 h for mice administered by MTX-PEG5000.
The logarithm of plasma concentrations of MTX and MTX-PEG5000 were plotted vs. time. […] The pharmacokinetic parameters were obtained by fitting data to two-compartmental model equation (C = Ae^-αt + Be^-βt) and noncompartmental model using Excel 2010 (33).

[3] = set-up: method as in earlier work; conditions: cited from earlier work
[4] = Biodistribution (tissue distribution) after IV injection to mice; type: in vivo; conditions: iv 70 mg/kg
Procedure: For preparation of MTX tissue samples, one volume of tissue homogenate in normal saline was mixed with two volume acetonitrile and centrifuged in 12000 rpm for 5 min. The supernatant was removed and evaporated to dryness under nitrogen gas. The residue was reconstituted in 250 μL mobile phase and was injected to HPLC. For preparation of MTX-PEG5000 tissue samples, one volume of tissue homogenate in normal saline was mixed with two volumes of dichloromethane and shaked for 15 min. After centrifugation (5000 rpm), the lower organic phase was aspirated and dehydrated by Na2SO4 and after dissolving in 200 μL mobile phase, was injected to HPLC. The standard solutions were prepared in triplicate at concentration levels ranging from of 1 to 50 µg/mL for MTX and 2.5 to 500 µg/mL for MTX-PEG5000.
The same HPLC instrument was utilized for analysis of MTX and MTX-PEG tissue samples. The precision and accuracy of the method were examined by adding known amounts of MTX (0. 25, 2.5 and 10 µg/mL) and MTX-PEG5000 (5, 50 and 500 µg/mL) to pool tissue (quality control) samples. The other steps were performed as plasma samples.
as §1, with “Whole removed organs and 0.25 to 0.5 g of liver and small intestine were minced and homogenized in a certain volume of normal saline using homogenizer IKA basic T25 (Germany). The organs were collected from MTX injected animals (10, 60 and 120 min for all organs and 5, 10, 30, 60 and 120 for liver tissue) and at 2, 6, 12, 24, and 48 h for mice administered by MTX-PEG5000.” left out

[5] = set-up: method as in PMID 18346806; conditions: cited from earlier work
plasma proteins = conditions: cited from earlier work
[6] = relatively alkaline pH of plasma; no reference given; cited from earlier work
[7] = iv 70 mg/kg, two-compartmental model, n = 3
[8] = iv 70 mg/kg, two-compartmental model, n = 3, 70 mg/kg

SMILES: CC[C@@]1(O)C(=O)OCc2c1cc1n(c2=O)Cc2cc3ccccc3nc2-1 [Campthotecin]
- T1/2 β [1]: 22 h

SMILES: Nc1ccn([C@@H]2O[C@H](CO)[C@@H](O)C2(F)F)c(=O)n1 [Gemcitabine]
- AUC [2]: 118.55 µg·min/mL
- T1/2 α [2]: 59.4 min
- T1/2 β [2]: 11.23 h
- clearance [2]: 0.654 mL/min

- AUMC (in vivo; iv 70 mg/kg, n = 3): 24.63 ± 2.84 mg.mL-.min2
- Vc (in vivo; iv 70 mg/kg, n = 3): 94.025 ± 6.814 mL
- K10 (in vivo; [7]): 0.236 ± 0.043 min⁻¹
- K12 (in vivo; [7]): 0.050 ± 0.020 min⁻¹
- K21 (in vivo; [7]): 0.036 ± 0.002 min⁻¹
- T1/2a (distribution half-life, T1/2 α) (in vivo; [8]): 2.445 ± 0.549 min
- T1/2b (elimination half-life, T1/2 β) (in vivo; [8]): 24.328 ± 0.657 min
- half-life (in vivo; mouse, plasma, 70 mg/kg, two-compartmental model, n = 3, read-out: T1/2a (distribution half-life, T1/2 α)): 2.45 min
- half-life (in vivo; mouse, plasma, 70 mg/kg, two-compartmental model, n = 3, read-out: T1/2b (elimination half-life, T1/2 β)): 24.3 min
- clearance (in vivo; mouse, plasma, iv 70 mg/kg, n = 3, read-out: CLs (systemic clearance)): 22.4 ± 5.46 mL/min
- MRT (in vivo; mouse, plasma, iv 70 mg/kg, noncompartmental model, n = 3, read-out: MRT (mean residence time) (converted)): 9.3 min
- Time after injection up to which measurable in tissues [4]: ≤ 2 h
SMILES: CN(Cc1cnc2nc(N)nc(N)c2n1)c1ccc(C(=O)N[C@@H](CCC(=O)O)C(=O)O)cc1 [MTX, Methotrexate]
- AUC (in vivo; iv 70 mg/kg, n = 3, 70 mg/kg): 2.64 mg·min/mL and 2.642 mg·min/mL and 2.642 ± 0.190 mg·min/mL
- Plasma half-life [3]: 1.5 to 3.5 h
- Accumulation in organs (liver, intestine) ([4]; 70 mg/kg): accumulated in liver immediately after its distribution phase (10 min) and then redistributed to small intestine (60 min); also recorded: high and fast accumulation in liver
- Presence in the brain ([4]; brain): no detectable amount of drug was found in the brain
- Solubility in aqueous solution ([5]; pH4): 0.08 mg/mL (≈ 0.176 mM)
- Solubility in aqueous solution ([5]; pH8): 58.17 mg/mL (≈ 128 mM)
- Protein binding (plasma proteins): 30-50%
- Portion of the drug bound to plasma proteins (plasma proteins; no reference given): 50%
- logP [6]: -1.4
